The subject of data set [1] is Rattus norvegicus. Nature of the data set: Oral bioavailability in rat at 10 mg/kg. Type of data set: ADME, organism-based. As to conditions: in vivo.
Data set [2] can be described thus: Half life in rat at 10 mg/kg, sc. As to conditions: in vivo. Format: ADME, organism-based. Further details: dose 10 mg/kg, route subcutaneous.
The nature of data set [3]: Half life in rat at 10 mg/kg, iv. Type of data set: ADME, organism-based. Further details: dose 10 mg/kg, route intravenous. As to conditions: in vivo.
Data set [4] concerns the target T1, Prostaglandin E2 receptor EP2 subtype (Homo sapiens, UniProt P43116). Nature of the data set: Agonist activity at human EP2 receptor by cAMP assay. Format: functional.
The nature of data set [5]: Tmax in rat at 10 mg/kg, sc. As to conditions: in vivo. Format: ADME, organism-based. Also on record: dose 10 mg/kg, route subcutaneous.
The subject of data set [6] is Rattus norvegicus. Nature of the data set: AUC (0 to 48 hrs) in rat at 10 mg/kg, sc. Type of data set: ADME, organism-based, Plasma. Also on record: time < 48 hr, dose 10 mg/kg, route subcutaneous. The following applies: in vivo.
Data set [7] can be described thus: Tmax in rat at 10 mg/kg, po. Format: ADME, organism-based. Further details: dose 10 mg/kg, route oral. The following applies: in vivo.
The nature of data set [8]: Tmax in rat at 10 mg/kg, iv. As to conditions: in vivo. Type of data set: ADME, organism-based. Also on record: dose 10 mg/kg, route intravenous.
Data set [9] deals with Rattus norvegicus. Nature of the data set: Bioavailability in rat at 10 mg/kg, sc. Format: ADME, organism-based. As to conditions: in vivo.
Data set [10] is filed under the species Cavia porcellus. The data set is described as follows: Inhibition of methacholine-induced bronchoconstriction in Duncan-Hartley guinea pig. Type of data set: functional.
Data set [11] relates to Rattus norvegicus. Nature of the data set: AUC (0 to 48 hrs) in rat at 10 mg/kg, po. Format: ADME, organism-based, Plasma. Further details: time < 48 hr, dose 10 mg/kg, route oral. The following applies: in vivo.
The test system of data set [12] is Rattus norvegicus. The data set is described as follows: AUC (0 to 48 hrs) in rat at 10 mg/kg, iv. Type of data set: ADME, organism-based, Plasma. Also on record: time < 48 hr, dose 10 mg/kg, route intravenous. The following applies: in vivo.
Data set [13] deals with T2, Prostaglandin E2 receptor EP4 subtype (Homo sapiens, UniProt P35408). Nature of the data set: Agonist activity at human EP4 receptor by cAMP assay. Type of data set: functional.
Data set [14] deals with Cavia porcellus. Nature of the data set: Inhibition of methacholine-induced bronchoconstriction in Duncan-Hartley guinea pig at >3 ug/kg. Type of data set: functional.
Data set [15] is described as follows: Half life in rat at 10 mg/kg, po. Type of data set: ADME, organism-based. Further details: dose 10 mg/kg, route oral. The following applies: in vivo.
Data set [16] can be described thus: Clearance in rat at 10 mg/kg. Also on record: dose 10 mg/kg. The following applies: in vivo. Format: ADME, organism-based.
Data set [17] in a line: Drug distribution in rat at 10 mg/kg, iv. Type of data set: ADME, organism-based. Also on record: dose 10 mg/kg, route intravenous. The following applies: in vivo, read-out: Drug uptake.
The target of data set [18] is T1, Prostaglandin E2 receptor EP2 subtype. The data set is described as follows: Displacement of [3H]PGE2 from human EP2 receptor. On the technique in general: In a radioligand displacement assay an active substance lowers the binding of a labelled ligand.
Data set [19] deals with T2, Prostaglandin E2 receptor EP4 subtype. Nature of the data set: Displacement of […] from human EP4 receptor.
In data set [20] the test system is Mus musculus. Nature of the data set: Induction of ovulation in sc dosed CD1 mouse. Type of data set: functional.
For data set [21], the system named is Mus musculus. Nature of the data set: Induction of ovulation in po dosed CD1 mouse. Type of data set: functional.

This is an account of results in ChEMBL document CHEMBL1143179 (Bioorg Med Chem Lett, 2008).

pEC50, pKi: −log10 of the molar value. Activity calls are given as the source filed them. Where only a bound is given, the exact number is not on record here.

T2 sequence (P35408 whole entry): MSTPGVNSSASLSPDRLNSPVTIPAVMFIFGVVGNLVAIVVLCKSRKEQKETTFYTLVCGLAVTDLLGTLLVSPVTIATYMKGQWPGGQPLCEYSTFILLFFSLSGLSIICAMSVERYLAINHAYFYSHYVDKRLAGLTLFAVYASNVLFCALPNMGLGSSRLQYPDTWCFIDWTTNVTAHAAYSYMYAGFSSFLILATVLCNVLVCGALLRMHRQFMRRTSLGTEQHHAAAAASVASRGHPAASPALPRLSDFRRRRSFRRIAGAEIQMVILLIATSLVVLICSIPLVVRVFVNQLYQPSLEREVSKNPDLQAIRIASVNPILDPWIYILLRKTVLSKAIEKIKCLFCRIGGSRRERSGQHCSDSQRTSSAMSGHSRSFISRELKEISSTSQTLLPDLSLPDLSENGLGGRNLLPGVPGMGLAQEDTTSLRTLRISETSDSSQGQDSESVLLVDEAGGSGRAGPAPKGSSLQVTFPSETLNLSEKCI
T1 sequence (P43116 whole entry): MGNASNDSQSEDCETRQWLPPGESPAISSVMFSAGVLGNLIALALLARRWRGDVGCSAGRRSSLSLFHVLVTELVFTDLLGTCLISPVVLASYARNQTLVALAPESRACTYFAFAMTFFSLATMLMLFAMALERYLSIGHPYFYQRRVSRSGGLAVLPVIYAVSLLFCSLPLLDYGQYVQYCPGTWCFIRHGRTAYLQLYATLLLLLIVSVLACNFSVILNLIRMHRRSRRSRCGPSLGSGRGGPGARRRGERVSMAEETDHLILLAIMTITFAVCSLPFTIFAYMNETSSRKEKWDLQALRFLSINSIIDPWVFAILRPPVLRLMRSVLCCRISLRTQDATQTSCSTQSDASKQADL

A word on the half-life: it is the time needed for the level to fall by half in the phase considered. A lower half-life goes with fast loss. Usually pEC50 stands for the EC50 on a negative log10 scale, so that one unit is a factor of ten. Higher therefore signals a low EC50. As a reminder, the Tmax is the time from dosing to the highest level. As usually defined, the AUC is the area under the concentration-time curve, a measure of exposure. A high value points to high exposure. As usually defined, the ED50 is the dose at which the effect has come halfway, by size or by number of responders. Low readings indicate an effect at a small dose, high ones a need for a large dose. As usually defined, the Inhibition is the drop in the measured response relative to a control, in per cent. A higher Inhibition goes with a strong effect. By clearance is commonly meant the volume of plasma or blood freed of the substance per unit of time. The low end stands for inefficient removal, the high end for efficient removal. For the molecule `CCCCC[C@H](O)/C=C/[C@H]1CCC(=O)N1CCc1ccc(C(=O)O)cc1`, the F in data set [1] came to 33%; in [9], 82%. In addition, the figures for the half-life in data set [2], in data set [3] and in [15] were 31.6 h, 14.3 h and 20.8 h, respectively. Moreover, the pEC50 in [4] is 7.82; in data set [13], 10.70. Moreover, the Tmax is 0.25 h in [5], 4 h in data set [7] and 4.98 min in data set [8]. In addition, the AUC in [6] worked out at 35175.6 ng·h/mL; in data set [11] it was 14657.8 ng·h/mL; in [12] it was 18095.3 ng·h/mL. For the same molecule, the ED50 in [10] was 0.0017 mg/kg. In addition, the Inhibition in [14] was more than 50%. The molecule also showed a clearance in data set [16] of 9.17 mL/min/kg. Besides, in data set [17], the Vd was 42.4 L/kg.
One may read the pKi as the Ki on a negative log10 scale, so that one unit is a factor of ten. For the molecule `O=C(O)c1ccc(CCN2C(=O)CC[C@@H]2/C=C/[C@@H](O)Cc2ccccc2)cc1`, the pEC50 is 6.36 in data set [4] and 10.52 in [13]. This molecule had a pKi in [18] of 5.60.
In the case of `CCCC[C@H](O)/C=C/[C@H]1CCC(=O)N1CCc1ccc(C(=O)O)cc1`, the pEC50 in [4] is 7.10; in data set [13], 10.40. For the same molecule, the pKi in [19] was 9.00; in data set [18] it was 6.37.
In the case of `CC[C@H](O)/C=C/[C@H]1CCC(=O)N1CCc1ccc(C(=O)O)cc1`, the pKi in data set [19] was 6.31; in data set [18], less than 5.00.
Regarding `CCCCCC[C@H](O)/C=C/[C@H]1CCC(=O)N1CCc1ccc(C(=O)O)cc1`, the pKi in [18] was 7.27.
On to `O=C(O)c1ccc(CCN2C(=O)CC[C@@H]2/C=C/[C@@H](O)Cc2cccc(Cl)c2)cc1`, for which the results for the pEC50 in data set [4] and in data set [13] were 6.60 and 10.52, respectively. Besides, the pKi was 10.70 in data set [19] and 6.00 in data set [18]. In addition, the outcome in data set [20] was inactive.
Consider `CCCCC(C)(C)[C@H](O)/C=C/[C@H]1CCC(=O)N1CCc1ccc(C(=O)O)cc1`, for which the pEC50 in data set [4] is 7.72; in data set [13], 8.52. The pKi in data set [19] is 8.05; in data set [18], 6.85.
Consider `CCCCC1([C@@H](O)/C=C/[C@H]2CCC(=O)N2CCc2ccc(C(=O)O)cc2)CCC1`, for which the figures for the pEC50 in data set [4] and in data set [13] were 8.52 and 9.52, respectively. For the same molecule, the pKi in data set [19] is 8.70; in data set [18] it was 7.68. In [20], the outcome was inactive. The molecule also returned an ED50 in data set [21] of 1 mg/kg.
As to `CCC[C@H](O)/C=C/[C@H]1CCC(=O)N1CCc1ccc(C(=O)O)cc1`, the pKi in [19] is 7.57; in data set [18] it was 4.60.
On to `CCCC1([C@H](O)C/C=C/[C@H]2[C@H](O)CC(=O)[C@@H]2CCCCCCC(=O)OC)CCC1`, for which, in data set [21], the outcome was inactive.
